From patent US20080293712A1, “Benzo[C][2,7]Naphtyridine Derivatives, Methods of Making Thereof and Methods of Use Thereof” (WYETH, priority 2007, published 2008)
Where two headings read alike, the source gives them in different places.

Target: T1, PDK-1 (Homo sapiens, UniProt O15530)
T1 sequence (O15530 1-556): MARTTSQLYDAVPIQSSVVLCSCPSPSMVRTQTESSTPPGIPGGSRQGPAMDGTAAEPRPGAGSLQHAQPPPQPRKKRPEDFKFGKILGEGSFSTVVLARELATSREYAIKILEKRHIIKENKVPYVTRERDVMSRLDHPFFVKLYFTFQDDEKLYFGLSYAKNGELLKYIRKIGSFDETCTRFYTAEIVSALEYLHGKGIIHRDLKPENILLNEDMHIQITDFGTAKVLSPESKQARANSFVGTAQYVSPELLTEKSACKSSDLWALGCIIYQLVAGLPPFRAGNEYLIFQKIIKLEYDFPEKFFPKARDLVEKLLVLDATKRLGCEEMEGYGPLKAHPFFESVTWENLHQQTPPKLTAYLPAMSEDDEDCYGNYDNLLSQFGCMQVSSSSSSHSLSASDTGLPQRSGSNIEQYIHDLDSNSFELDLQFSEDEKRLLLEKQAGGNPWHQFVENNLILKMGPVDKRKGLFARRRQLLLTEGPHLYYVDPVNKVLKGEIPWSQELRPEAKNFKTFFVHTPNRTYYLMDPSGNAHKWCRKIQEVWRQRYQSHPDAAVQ
Experiment: PDK-1 kinase inhibition ELISA assay (phosphorylation of His6-tagged SGK1 S422D by PDK-1)
Assay type: biochemical

[1] = PDK-1 ELISA, Table 11, read-out: Average IC50

| IC50 [1] [µM] | IC50 [µM] | Compound |
| --- | --- | --- |
| > 20 | – | CCOc1cc2ncc3c(N)nc(-c4ccc(Br)cc4)cc3c2cc1OCC [Ia-47, 2-(4-bromophenyl)-8,9-diethoxybenzo[c]-2,7-naphthyridin-4-amine] |
| 0.014 | – | COc1cc2ncc3c(N)nc(-c4cncc(OC[C@@H](N)CN5CCCC5)c4)cc3c2cc1OC [Ib-110, 2-(5-{[(2S)-2-amino-3-pyrrolidin-1-ylpropyl]oxy}pyridin-3-yl)-8,9-dimethoxybenzo[c][2,7]naphthyridin-4-amine] |
| 0.524 | – | COc1cc2ncc3c(N)nc(-c4cccc(C(=O)O)c4)cc3c2cc1OC [Ib-76, 3-(4-amino-8,9-dimethoxybenzo[c][2,7]naphthyridin-2-yl)benzoic acid] |
| 1 | – | COc1cc2ncc3c(N)nc(-c4cc(F)cc(F)c4)cc3c2cc1OC [Ib-239, 2-(3,5-difluorophenyl)-8,9-dimethoxybenzo[c][2,7]naphthyridin-4-amine] |
| 0.002 | – | COc1cc2ncc3c(N)nc(-c4cncc(OC[C@@H](N)COc5nc6ccccc6[nH]5)c4)cc3c2cc1OC [Ib-146, 2-(5-{[(2R)-2-amino-3-(1H-benzimidazol-2-yloxy)propyl]oxy}pyridin-3-yl)-8,9-dimethoxybenzo[c][2,7]naphthyridin-4-amine] |
| 0.02 | – | COc1cc2ncc3c(N)nc(-c4cncc(OC[C@@H](N)CNc5nccc(C)n5)c4)cc3c2cc1OC [Ib-113, (2S)-3-{[5-(4-amino-8,9-dimethoxybenzo[c][2,7]naphthyridin-2-yl)pyridin-3-yl]oxy}-N1-(4-methylpyrimidin-2-yl)propane-1,2-diamine] |
| – | 0.0737 | COc1ccccc1Nc1cncc(-c2cc3c(cnc4cc(OC)c(OC)cc43)c(N)n2)c1 [Ib-181, 8,9-dimethoxy-2-{5-[(2-methoxyphenyl)amino]pyridin-3-yl}benzo[c][2,7]naphthyridin-4-amine] |
| – | 0.024 | COc1cc2ncc3c(N)nc(-c4cncc(Nc5ccccc5CCO)c4)cc3c2cc1OC [Ib-197, 2-(2-{[5-(4-amino-8,9-dimethoxybenzo[c][2,7]naphthyridin-2-yl)pyridin-3-yl]amino}phenyl)ethanol] |
| 0.11 | – | CNC(=O)c1ccccc1Nc1cncc(-c2cc3c(cnc4cc(OC)c(OC)cc43)c(N)n2)c1 [Ib-187, 2-{[5-(4-amino-8,9-dimethoxybenzo[c][2,7]naphthyridin-2-yl)pyridin-3-yl]amino}-N-methylbenzamide] |
| 0.066 | – | COc1cc2ncc3c(N)nc(-c4cncc(OC[C@@H](N)CN5CCN(c6ccccn6)CC5)c4)cc3c2cc1OC [Ib-20, 2-(5-{[(2S)-2-amino-3-(4-pyridin-2-ylpiperazin-1-yl)propyl]oxy}pyridin-3-yl)-8,9-dimethoxybenzo[c]-2,7-naphthyridin-4-amine] |
| 4.12 | – | COc1cc2ncc3c(N)nc(N4CC[C@H](O)C4)cc3c2cc1OC [Ib-68, (3S)-1-(4-amino-8,9-dimethoxybenzo[c]-2,7-naphthyridin-2-yl)pyrrolidin-3-ol] |
| 0.037 | – | COc1cc2ncc3c(N)nc(-c4cncc(Nc5ccccc5NC(C)=O)c4)cc3c2cc1OC [Ib-185, N-(2-{[5-(4-amino-8,9-dimethoxybenzo[c][2,7]naphthyridin-2-yl)pyridin-3-yl]amino}phenyl)acetamide] |
| 0.115 | – | COc1cc2ncc3c(N)nc(-c4cncc(Oc5ccncc5N)c4)cc3c2cc1OC [Ib-170, 2-{5-[(3-Aminopyridin-4-yl)oxy]pyridin-3-yl}-8,9-dimethoxybenzo[c][2,7]naphthyridin-4-amine] |
| 6.42 | – | COCCOc1cc2ncc3c(N)nc(N4CCOCC4)cc3c2cc1OC [Ia-57, 9-Methoxy-8-(2-methoxyethoxy)-2-morpholin-4-ylbenzo[c]-2,7-naphthyridin-4-amine] |
| 0.053 | – | COc1cc2ncc3c(N)nc(-c4cncc(OC[C@@H](N)CNCC5CCCCC5)c4)cc3c2cc1OC [Ib-95, (2S)-3-{[5-(4-amino-8,9-dimethoxybenzo[c][2,7]naphthyridin-2-yl)pyridin-3-yl]oxy}-N1-(cyclohexylmethyl)propane-1,2-diamine] |
| 0.006 | – | COc1cc2ncc3c(N)nc(-c4cncc(OC[C@@H](N)CNC(C)(C)c5cccnc5)c4)cc3c2cc1OC [Ib-93, (2S)-3-{[5-(4-amino-8,9-dimethoxybenzo[c][2,7]naphthyridin-2-yl)pyridin-3-yl]oxy}-N1-(1-methyl-1-pyridin-3-ylethyl)propane-1,2-diamine] |
| 2.62 | – | COCCOc1cc2ncc3c(N)nc(Cl)cc3c2cc1OC [Ia-61, 2-Chloro-9-methoxy-8-(2-methoxyethoxy)benzo[c]-2,7-naphthyridin-4-amine] |

| IC50 [1] [µM] | IC50 [µM] | Compound |
| --- | --- | --- |
| 2.36 | – | COCCOc1cc2ncc3c(N)nc(N4CCC[C@@H]4COC)cc3c2cc1OC [Ia-56, 9-methoxy-8-(2-methoxyethoxy)-2-[(2R)-2-(methoxymethyl)pyrrolidin-1-yl]benzo[c]-2,7-naphthyridin-4-amine] |
| 0.055 | – | COc1cc2ncc3c(N)nc(-c4cncc(OC[C@@H](N)COc5ccc(CCC#N)cc5)c4)cc3c2cc1OC [Ib-158, 3-(4-{[(2S)-2-amino-3-{[5-(4-amino-8,9-dimethoxybenzo[c][2,7]naphthyridin-2-yl)pyridin-3-yl]oxy}propyl]oxy}phenyl)propanenitrile] |
| 0.009 | – | COc1cc2ncc3c(N)nc(-c4cncc(OC[C@@H](N)COC5=NCCN5)c4)cc3c2cc1OC [Ib-148, 2-(5-{[(2R)-2-amino-3-(4,5-dihydro-1H-imidazol-2-yloxy)propyl]oxy}pyridin-3-yl)-8,9-dimethoxybenzo[c][2,7]naphthyridin-4-amine] |
| – | 0.434 | COc1cccc(Nc2cncc(-c3cc4c(cnc5cc(OC)c(OC)cc54)c(N)n3)c2)c1 [Ib-176, 8,9-dimethoxy-2-{5-[(3-methoxyphenyl)amino]pyridin-3-yl}benzo[c][2,7]naphthyridin-4-amine] |
| 0.003 | – | COc1cc2ncc3c(N)nc(-c4cncc(OC[C@@H](N)CSc5ccccn5)c4)cc3c2cc1OC [Ib-159, 2-(5-{[(2R)-2-amino-3-(pyridin-2-ylthio)propyl]oxy}pyridin-3-yl)-8,9-dimethoxybenzo[c][2,7]naphthyridin-4-amine] |
| 4.97 | – | COc1cc2ncc3c(N)nc(N4CC[C@@H](N(C)C)C4)cc3c2cc1OC [Ib-66, 2-[(3R)-3-(dimethylamino)pyrrolidin-1-yl]-8,9-dimethoxybenzo[c]-2,7-naphthyridin-4-amine] |
| 0.0695 | – | COCCN(C)c1cc2ncc3c(N)nc(-c4cncc(OC[C@@H](N)Cc5ccccc5)c4)cc3c2cc1OC [Ia-38, 2-(5-{[(2S)-2-amino-3-phenylpropyl]oxy}pyridine-3-yl)-9-methoxy-N^8-(2-methoxyethyl)-N^8-methylbenzo[c]-2,7-naphthyridin-4,8-diamine] |
| 0.027 | – | COc1cc2ncc3c(N)nc(-c4cncc(Nc5cccc(CN)c5)c4)cc3c2cc1OC [Ib-189, 2-(5-{[3-(aminomethyl)phenyl]amino}pyridin-3-yl)-8,9-dimethoxybenzo[c][2,7]naphthyridin-4-amine] |
| 0.091 | – | COc1cc2ncc3c(N)nc(-c4cncc(Nc5ccc(CCO)cc5)c4)cc3c2cc1OC [Ib-198, 2-(4-{[5-(4-amino-8,9-dimethoxybenzo[c][2,7]naphthyridin-2-yl)pyridin-3-yl]amino}phenyl)ethanol] |
| 0.005 | – | COc1cc2ncc3c(N)nc(-c4cncc(OC[C@@H](N)CNc5ccc(F)c(Cl)c5)c4)cc3c2cc1OC [Ib-84, (2S)-3-{[5-(4-amino-8,9-dimethoxybenzo[c][2,7]naphthyridin-2-yl)pyridin-3-yl]oxy}-N1-(3-chloro-4-fluorophenyl)propane-1,2-diamine] |
| 0.08 | – | COc1cc2ncc3c(NO)nc(-c4cncc(OC[C@@H](N)Cc5c[nH]c6ccccc56)c4)cc3c2cc1OC [Compound I-1, 2-(5-{[(2S)-2-amino-3-(1H-indol-3-yl)propyl]oxy}pyridin-3-yl)-N-hydroxy-8,9-dimethoxybenzo[c]-2,7-naphthyridin-4-amine] |
| 0.081 | – | COc1cc2ncc3c(N)nc(-c4cncc(OC[C@@H](N)Cc5ccc(N)cc5)c4)cc3c2cc1OC [Ib-19, 2-(5-{[(2S)-2-amino-3-(4-aminophenyl)propyl]oxy}pyridin-3-yl)-8,9-dimethoxybenzo[c]-2,7-naphthyridin-4-amine] |
| 0.527 | – | Nc1nc(-n2ccnc2)cc2c1cnc1cc(Br)ccc12 [Ia-37, 8-Bromo-2-(1H-imidazol-1-yl)benzo[c]-2,7-naphthyridin-4-amine] |
| 0.029 | – | COc1cc2ncc3c(N)nc(-c4cncc(OC[C@@H](N)CN5CCC(=O)CC5)c4)cc3c2cc1OC [Ib-4, 1-[(2S)-2-amino-3-{[5-(4-amino-8,9-dimethoxybenzo[c]-2,7-naphthyridin-2-yl)pyridin-3-yl]oxy}propyl]piperidin-4-one] |
| 0.066 | – | COc1cc2ncc3c(N)nc(-c4cncc(Br)c4)cc3c2cc1OC [Ib-15, 2-(5-bromopyridin-3-yl)-8,9-dimethoxybenzo[c]-2,7-naphthyridin-4-amine] |
| 0.01 | – | COc1cc2ncc3c(N)nc(-c4cncc(OC[C@@H](N)CN5CCC[C@H]5c5nccs5)c4)cc3c2cc1OC [Ib-98, 2-[5-({(2S)-2-amino-3-[(2S)-2-(1,3-thiazol-2-yl)pyrrolidin-1-yl]propyl}oxy)pyridin-3-yl]-8,9-dimethoxybenzo[c][2,7]naphthyridin-4-amine] |
| – | 0.183 | COc1cc2ncc3c(N)nc(-c4cncc(Nc5ccccc5F)c4)cc3c2cc1OC [Ib-205, 2-{5-[(2-fluorophenyl)amino]pyridin-3-yl}-8,9-dimethoxybenzo[c][2,7]naphthyridin-4-amine] |
